Measurements: BigSolDB 2.1

Cc1nc2n(c(=O)c1CCN1CCC(c3noc4cc(F)ccc34)CC1)CCCC2
solubility (mole fraction)
Conditions	in ethanol	in methanol	in water
283.15 K	0.00105	0.00239	4.63e-08
283.16 K	0.00104	0.00239	4.63e-08
288.15 K	0.00138	0.00294	6.24e-08
288.16 K	0.00138	0.00294	6.24e-08
293.15 K	0.0017	0.00363	8.15e-08
293.16 K	0.0017	0.00363	8.15e-08
298.15 K	0.00216	0.00443	1.08e-07
298.16 K	–	0.00443	1.08e-07
303.15 K	0.00272	0.00546	1.38e-07
303.16 K	–	0.00546	1.38e-07
308.15 K	0.0035	0.00673	1.83e-07
308.16 K	–	0.00674	1.83e-07
313.15 K	0.00438	0.0083	2.38e-07
313.16 K	–	0.0083	2.38e-07
318.15 K	–	0.0101	2.91e-07
318.16 K	–	0.0101	2.91e-07
323.15 K	–	0.0121	3.81e-07
323.16 K	–	0.0121	3.81e-07
328.15 K	–	0.0148	4.79e-07
328.16 K	–	0.0148	4.79e-07
